This is an account of results in ChEMBL document CHEMBL1201862, “PubChem BioAssay data set” (2004).

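Test compounds were applied to cells in 96-well plates for 48 hours at 5 doses. Here, GI50 denotes the concentration required for 50% inhibition of growth.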 Activity calls are given as the source filed them. No stated cut-off is given here; in the data, active = GI50 up to about 1.1 µM and inactive = higher.

Test systems include NCI-H23; HCT-15; RXF 393; SNB-75; SNB-19; K562; A498; SK-MEL-2; TK-10; SF-295; M14; COLO 205; KM12; HT-29; HOP-62; HOP-92.
Common to all, as to assay: growth of human tumour cells (NCI), 48 h

Take `O=C(O)CCC(=O)Oc1ccc(O)c2c1CCCC2=O`: the GI50 with NCI-H23 is > 100 µM (inactive); with HCT-15 it was greater than 100 µM; in the test on RXF 393, > 100 µM (inactive); in the test with SNB-75 it was 55.7 µM (inactive); in the test on SNB-19, > 100 µM (inactive); in the test on K562, > 100 µM (inactive). Moreover, the GI50 with A498, in the test on SK-MEL-2, in the test on TK-10, with SF-295, with M14 and with COLO 205 was > 100 µM (inactive) throughout. In addition, the GI50 in the test with KM12, in the test on HT-29 and in the test with HOP-62 was > 100 µM (inactive) in each case.
For `O=C(/C=C/c1ccco1)c1ccc(NCc2nc3ccccc3[nH]2)cc1`, the GI50 in the test with NCI-H23 is 13.5 µM (inactive); with HCT-15, 15 µM; in the test with SNB-75, 15.8 µM (inactive); with SNB-19, 15.6 µM (inactive); in the test on K562 it was 15.2 µM (inactive); with A498 it was 14.4 µM (inactive). Moreover, the GI50 with SK-MEL-2 is 19.1 µM (inactive); in the test with TK-10 it was 17.9 µM (inactive); in the test with SF-295, 15.6 µM (inactive); with HOP-92, 12.2 µM (inactive); in the test on M14 it was 16.9 µM (inactive); with COLO 205 it was 13.5 µM (inactive). The values for the GI50 in the test on KM12, in the test on HT-29 and in the test with HOP-62 were 10.3 µM (inactive), 19.8 µM (inactive) and 19.1 µM (inactive), respectively.
Take `C[C@H]1CC[P+](Cc2ccccc2)(c2ccccc2)C1` (some centres undefined): the GI50 in the test with NCI-H23 is > 100 µM (inactive); in the test on HCT-15, greater than 100 µM; with RXF 393 it was > 100 µM (inactive); in the test on SNB-75, 73.6 µM (inactive); in the test with SNB-19, > 100 µM (inactive); with K562, > 100 µM (inactive). In addition, the GI50 in the test on A498 was > 100 µM (inactive); in the test on SK-MEL-2, > 100 µM (inactive); with TK-10 it was > 100 µM (inactive); in the test with SF-295, > 100 µM (inactive); in the test on M14, > 100 µM (inactive); in the test on COLO 205, 38 µM (inactive). Besides, the GI50 is > 100 µM (inactive) in the test on KM12, 73.6 µM (inactive) in the test on HT-29 and > 100 µM (inactive) in the test on HOP-62.
As to `O=C1NCC2=C1CCC1c3ccccc3CCN21` (centres undefined), the GI50 is > 100 µM (inactive) in the test on NCI-H23; greater than 100 µM in the test with HCT-15; > 100 µM (inactive) in the test with RXF 393; > 100 µM (inactive) in the test on SNB-75; > 100 µM (inactive) in the test with SNB-19; > 100 µM (inactive) in the test with A498. Also, the GI50 with SK-MEL-2, in the test with TK-10, in the test on SF-295, in the test on HOP-92, in the test on COLO 205 and in the test with KM12 was > 100 µM (inactive) throughout. Besides, in the test with HT-29, the GI50 was > 100 µM (inactive).
For `COc1ccc2c(c1)Oc1cc(O)ccc1[C@H]2c1ccccc1C(=O)NC(C)c1ccccc1` (some centres undefined), the GI50 in the test on NCI-H23 was 15.5 µM (inactive); with HCT-15, 14.6 µM; with RXF 393 it was 18.7 µM (inactive); in the test with SNB-75, 16.4 µM (inactive); with SNB-19, 17.6 µM (inactive); with K562 it was 16.8 µM (inactive). Moreover, the GI50 in the test with A498 is 16.9 µM (inactive); with SK-MEL-2, 21.5 µM (inactive); in the test on TK-10, 24.2 µM (inactive); in the test on SF-295, 12.4 µM (inactive); in the test with M14 it was 13.1 µM (inactive); in the test with COLO 205, 17.1 µM (inactive). Further, the values for the GI50 in the test with KM12, in the test with HT-29 and in the test with HOP-62 were 14.3 µM (inactive), 19.9 µM (inactive) and 18.8 µM (inactive), respectively.
Take `Cc1ccc(-n2nc(C(OC3OC(CO)C(O)C(O)C3O)C(O)CO)c3nc4cc(C)c(C)cc4nc32)cc1` (centres undefined): the GI50 in the test on NCI-H23 was > 100 µM (inactive); in the test with HCT-15 it was greater than 100 µM; in the test with RXF 393 it was 36.2 µM (inactive); with SNB-75, 34 µM (inactive); in the test with SNB-19 it was > 100 µM (inactive); with K562, > 100 µM (inactive). Also, the GI50 in the test on A498, in the test on TK-10, in the test on SF-295, with M14, with KM12 and in the test on HT-29 was > 100 µM (inactive) throughout. For the same compound, in the test on HOP-62, the GI50 was > 100 µM (inactive).
In the case of `CC1=C2[C@@H](c3ccccc3)C3C=CC2(c2ccccc23)N(C(=O)Nc2cccc3ccccc23)C1=O` (some centres undefined), the GI50 in the test with NCI-H23 was > 100 µM (inactive); with HCT-15, greater than 100 µM; in the test on SNB-19, > 100 µM (inactive); in the test on K562 it was > 100 µM (inactive); with A498, > 100 µM (inactive); with SF-295 it was > 100 µM (inactive). The GI50 with HOP-92, in the test with M14, in the test on COLO 205, with KM12 and in the test with HOP-62 was > 100 µM (inactive) in each case.
With `N#CC(/C(CCC(=O)Nc1ccc(Cl)cc1)=N/NC(=O)c1cc2ccccc2cc1O)c1ccccc1` (centres undefined), the GI50 was 39.3 µM (inactive) in the test on NCI-H23; 56.5 µM (inactive) in the test on RXF 393; 45 µM (inactive) in the test on SNB-75; 47.9 µM (inactive) in the test on SNB-19; 19.7 µM (inactive) in the test with SK-MEL-2; 56.5 µM (inactive) in the test on TK-10. Moreover, the GI50 with SF-295 was 39.8 µM (inactive); in the test with HOP-92, 40.9 µM (inactive); with M14, 32.6 µM (inactive); with COLO 205, 40.3 µM (inactive); with KM12, 35.9 µM (inactive); with HT-29, 45.9 µM (inactive). In addition, the GI50 in the test with HOP-62 was 31.3 µM (inactive).
For `O=c1[nH]c(=O)n([C@H]2C[C@@H](CO)[C@@H](O)C2)cc1I`, the GI50 was > 100 µM (inactive) with NCI-H23; greater than 100 µM in the test on HCT-15; 91.6 µM (inactive) in the test with SNB-75; > 100 µM (inactive) in the test with SNB-19; > 100 µM (inactive) in the test on K562; > 100 µM (inactive) with A498. Further, the GI50 in the test on SK-MEL-2 was > 100 µM (inactive); in the test on TK-10 it was > 100 µM (inactive); in the test with SF-295, > 10 µM (inactive); with HOP-92, > 100 µM (inactive); in the test on M14 it was > 100 µM (inactive); in the test with COLO 205, > 100 µM (inactive). In addition, the GI50 in the test with KM12, in the test with HT-29 and in the test with HOP-62 was > 100 µM (inactive) in each case.
For the compound `CC[C@@H]1OC2(C)CC(S(=O)(=O)c3ccccc3O)CC1O2` (some centres undefined), the GI50 was > 100 µM (inactive) with NCI-H23; greater than 100 µM in the test with HCT-15; > 100 µM (inactive) in the test with RXF 393; > 100 µM (inactive) in the test with SNB-75; > 100 µM (inactive) with SNB-19; > 100 µM (inactive) with K562. Besides, the GI50 with SK-MEL-2, in the test on SF-295, in the test with HOP-92, in the test on M14, in the test on COLO 205 and in the test on KM12 was > 100 µM (inactive) throughout. Besides, the GI50 is > 10 µM (inactive) in the test with HT-29 and > 100 µM (inactive) in the test on HOP-62.
